Results from US8877773B2, “Methods for treating chronic obstructive pulmonary disease” (Indiana University Research and Technology Corporation, priority 2009, dated 2014).
Entries after “also recorded” stand apart in the source; their conditions may differ.

Tests used:
Assay type in all cases: in vivo, rat
[1] = test system: panic-prone (1-AG treated) rats; assay: Defensive burying (defensive shock) test after NaLac challenge in panic-prone rats; details: 1-AG+NaLac rats
Procedure: The defensive burying test is a validated test of experimental anxiety and defensive-like behavior in rats. For four consecutive days before defensive burying test (days 3, 4, 5 and 6 post 1-AG onset), rats were acclimated to the testing apparatus by placing them for 10 min in the testing cage (a polycarbonate rat housing cage, 30.5 cm width×30.5 cm height×61 cm length) with 2.5 cm of bedding covering the floor and a small hole centered on a short dimension of the cage 2.5 cm above the bedding to accommodate the deactivated shock probe. The shock probe was 1 cm in diameter and extended 6 cm into the cage. Along the entire length of the exposed probe, 2 un-insulated wires were wrapped in parallel (not touching) so that the rat could not touch the probe without getting a shock. […] The shock intensity was set at 0.7 mA for the entire duration of testing so that the rat received a shock whenever the prod was contacted with its forepaws or snout. […] Behavioral assessments were made using software (ODLog Macropod Software for Windows, version 2.5.2) with different keystrokes coupled to each defensive behavior to accurately measure incidence and duration of each. The repertoire of behavioral reactions during a defensive burying test is well delineated and catalogued in rats. These behaviors include: 1) burying behavior, defined as duration spent pushing, shoveling, flicking and digging sawdust towards and around the prod with rapid movements of the snout and forepaws; 2) Freezing, defined as immobility with the body motionless; 3) probe exploration, defined as time spent on half of cage with probe; 4) rearing, defined as raising the body on the hind limbs in a vertical position; 5) ambulations, defined as number of times rat crossed from side of cage with probe to other; and also 5) grooming, defined as face washing, scratching, tail biting and licking of the body.
On day 1 adult male Sprague-Dawley rats (n=3/group) were anaesthetized and had osmotic minipumps (previously filled with 1-AG) stereotaxically implanted unilaterally into the DMH/PeF. […] Behavioral assessments were made using software (ODLog Macropod Software for Windows, version 2.5.2) with different keystrokes coupled to each defensive behavior to accurately measure incidence and duration of each.

control rats = assay: Baseline behavior and cardiovascular activity in control rats; details: control rats (no 1-AG or NaLac), 30 mg/kg i.p., 30 min following injection
Procedure: In experiments 4-6, rats were made panic vulnerable with 1-AG. 5 days after 1-AG onset, in a counterbalanced design, rats received intraperitoneal (i.p.) injections of treatment drug or vehicle 30 min prior to i.v. infusions. […] In experiment 5, baseline in an open field (OF) behavior test of anxiety was assessed (n=8) prior to 1-AG infusions. […] Immediately following the NaLac challenge, rats were placed in the OF test. […] In experiment 6,1-AG treated rats received an injection of an alternative ORX1 receptor antagonist (30 mg/kg SB408124 (N-(6,8-Difluoro-2-methyl-4-quinolinyl)-N′-(4-(dimethylamino)phenyl)urea), Tocris, in 0.2 ml/100 g volume DMSO, n=4) or vehicle (0.2 ml/100 g volume DMSO, n=6) 30 min prior to NaLac. In experiment 7, control rats (no 1-AG or NaLac treatment) were assessed in a SI test.
Adult male Sprague-Dawley rats were anesthetized and surgically implanted with telemetrical probes to measure cardiovascular activity prior to and during lactate infusions. […] 1960, Tocris, in 0.2 ml/100 g volume DMSO, n=7] or vehicle (0.2 ml/100 g volume DMSO, n=7). Cardiovascular activity and SI tests were monitored 30 min following injection at similar time points.

[2] = test system: rats exposed to hypercarbic gas; assay: Hypercarbic gas (20% CO2) challenge: MAP, HR, locomotor activity, fecal pellets
Procedure: Prior to surgery, rats were anesthetised with a nose cone connected to an isoflurane system (MGX Research Machine; Vetamic, Rossville Ind., USA) during the surgery. […] Briefly, cardiovascular responses were measured by a femoral arterial line connected to a telemetric probe that contained a pressure transducer [Cat. no. C50-PXT, Data Sciences International (DSI), St. Paul, Minn., USA]. DSI dataquest software was used to monitor and record MAP and HR. For the duration of each experiment, MAP and HR were recorded continuously in freely moving conscious rats. Data were analyzed during the period 5 min prior to, 5 min during, and 5 min following the gas challenges. The data reported are changes in HR and MAP, expressed in 1 min bins, relative to the average of the baseline measurement (t−5 min to t−1 min) from each rat.
Flow cages (12 in. width×12 in. height×24 in. length) were custom built using Plexiglas®. When the lid of the cage was latched, gases could only enter the cage through an inlet connector (for the gas infusion) and could only exit the cage through an outlet connector. The gas flow into the cages was controlled using a 2-stage regulator (Praxair, Inc., Danbury, Conn., USA) at a pressure of 0.6 Bar.
On day 1, rats (n=3/group) were selected from their home cages and placed into experimental cages containing atmospheric air. […] Fecal pellets were counted in cages at the end of gas challenges. In order to assess anxiety-like behavioural responses following exposure to hypercarbic gas, rats were immediately transferred to an adjacent room and place in the center square of an open-field box for a 5 min test. On day 2, the experiment was repeated, but the treatments were reversed for each rat. For instance, rats that received atmospheric gas challenge on day 1 received the hypercapnic gas challenge on day 2.
All rats received hypercarbic gas infusions as described in detail in Experiment 11. […] Blood pressure, heart rate, locomotor activity, number of fecal pellets and anxiety-like behavior were assessed as described in Experiment 11.
Dependent variables for analyses of cardiovascular responses (HR, MAP) and locomotor activity were analysed using a […], using gas infusion as the between-subjects factor and time as a within-subjects factor. Dependent variables for the number of fecal pellets and open-field anxiety test (i.e., time spent in each section, line crossings) were analysed using a one-way ANOVA with gas infusion in Experiment 11 and drug treatment in Experiment 12 as the between-subjects factors. […] Within-subjects comparisons were also made on the MAP and HR measures using a Dunnett's test for multiple comparisons with a single control using the 5 Min baseline measurement as the control. The alpha level was set at 0.05 in all cases.

[3] = 20% CO2, 30 mg/kg i.p. 30 min prior

SMILES: Cc1nc2ccc(NC(=O)Nc3ccnc4cccnc34)cc2o1 [SB334867, N-(2-Methyl-6-benzoxazolyl)-N′-1,5-naphthyridin-4-yl urea]
- grooming in defensive burying test ([1]; 30 mg/kg i.p.): No differences were detected
- rearing in defensive burying test ([1]; 30 mg/kg i.p.): No differences were detected
- time spent near probe in defensive burying test ([1]; 30 mg/kg i.p.): No differences were detected
- NaLac-induced freezing (immobility) in defensive burying test ([1]; 30 mg/kg i.p. 30 min prior, 30 mg/kg): completely blocked; also recorded: blocks
- number of times crossed line dividing halves of test cage (mid-line crossings) ([1]; 30 mg/kg i.p., sedation indicator, 30 mg/kg): No differences were detected
- HR in control rats (control rats): had no effect; also recorded: does not alter; also recorded: did not alter
- MAP in control rats (control rats): had no effect; also recorded: does not alter; also recorded: did not alter
- hypercarbic gas-induced changes in MAP (pressor response) ([2]; 20% CO2/normoxic gas 5 min, 30 mg/kg i.p. 30 min prior): attenuated
- hypercarbic gas-induced bradycardia ([2]; 20% CO2/normoxic gas 5 min, 30 mg/kg i.p. 30 min prior, 30 mg/kg): without altering; also recorded: had no effect
- hypercarbic gas-induced increase in numbers of fecal pellets [2, 3]: attenuated
- locomotor responses over time prior to, during or after hypercarbic gas [2, 3]: Neither the vehicle nor SB334867 treated rats had a change in locomotor responses
- locomotor activity prior to hypercarbic gas infusion ([2]; baseline, 30 mg/kg i.p., vs vehicle-treated rats): higher
